How the values were obtained:
Format in all cases: cell-based
[1] = test system: Bacillus subtilis C-3102 (FERM BP-1096); test: Influence of the concentration of germination inducer on turbidity change (Example 2); conditions: for turbidity (630 nm): 37° C., 150 rpm
Method: Next, 500 μL aliquots of bacterial suspension of Bacillus subtilis C-3102 (FERM BP-1096) used in Example 1 were mixed with 500 μL of ferulic acid, or vanillic acid solutions described above, and the mixtures were adjusted to ferulic acid (10 to 600 ppm), or vanillic acid (10 to 1800 ppm) concentrations set forth in Table 2. The concentrations of ferulic acid at the reaction initiation were 10, 100, 300, and 600 ppm, and the concentrations of vanillic acid at the reaction initiation were 10, 100, 300, 600, 1200, and 1800 ppm.
As same as Example 1, defining the time point of mixing the bacterial suspension with the solution of ferulic acid, or vanillic acid as the reaction initiation (0 min), and continuing shaking (150 rpm) at 37° C., the absorbance (630 nm) was measured at 10, 20, 30, 40, 50, 60, 90, 120, and 180 min after the reaction initiation.

[2] = test system: Bacillus licheniformis (NBRC 12195); test: Germination induction, change of turbidity (630 nm) of spore suspension; conditions: 300 ppm; for turbidity (630 nm): 37° C., 150 rpm
Method: (§1) It is possible to determine whether spores have germinated, after measuring an OD 630 value (turbidity at 630 nm) of the liquid culture, based on decrease in the value (Literature: Microbiology, (1950), 4, 3, 330-338). Briefly, bacterial cells after culturing are washed with distilled water and diluted with distilled water to OD 630=1.0, which is then mixed with an equal volume of a germination induction solution, and the turbidity at 630 nm is measured by a UV spectrophotometer at room temperature.
(§2) TS culture media (Difco, Trypticase Soy Broth) were inoculated respectively with 11 strains listed in Table 1 and cultured at 50° C. with respect to Geobacillus stearothermophilus NBRC13737 and Aeribacillus pallidus TK6004 (FERM BP-08597), and at 37° C. with respect to the other 9 strains, until respective colonies were established. Then with respect to each of 11 strains, a loop full of a single colony was scratched by a platinum loop and suspended in 500 μL of sterilized water. In 1000 g of water was dissolved 8.0 g of a nutrient agar culture medium (Difco, Nutrient Broth), followed by high pressure steam sterilization (121° C., 15 min) to prepare a plate medium. The nutrient agar culture medium was smeared with each 100 μL of the suspension and cultured at 37° C. for 3 days.
(§3) Then, bacterial cells were suspended using a platinum loop in 500 μL of sterilized water, and the bacterial suspension was subjected to a heat shock at 65° C. for 35 min. Each 100 μL of the heat-shocked bacterial suspension and a not-heat-shocked bacterial suspension were smeared on the TS culture media respectively and cultured at 50° C. or 37° C. for 1 day. As the results of the cultures, colony formation was confirmed also with respect to the heat-shocked bacterial suspensions, to confirm that spores were formed for all of 11 strains. Further, since the bacteria were not stained by Gram staining, it was reconfirmed that spores were formed.
(§4) After confirming the spore formation, the bacterial cells were collected by a bacteria spreader, suspended in 10 mL of sterilized distilled water, and then centrifuged (8340×g, 4° C., 15 min). The supernatant was removed and thereafter the bacterial cells were washed twice with 10 mL of sterilized water. After washing, the bacterial cells were suspended in 5 mL of sterilized water, and the suspension was filtrated by sterilized Kimwipes. The filtrate was centrifuged (8340×g, 4° C., 15 min) to remove the supernatant, and the rest was adjusted to the turbidity (at 630 nm) of 1.0 with sterilized water.
(§5) After dissolving with stirring using a stirring rod with a propeller, filtration sterilization (0.45 μm filter) was conducted to prepare each 600 ppm-solution.
(§6) Five hundred (500) μL of each solution and 500 μL of each bacterial spore suspension were mixed. […] Defining the time point of mixing as the reaction initiation (0 min), and continuing shaking (150 rpm) at 37° C., the turbidity (630 nm) was measured at 10, 20, 30, 40, 50, 60, 90, 120, and 180 min after the reaction initiation.
(§7) Since the turbidity at 630 nm decreases by germination of spores, it has been known that the turbidity at 630 nm can be used to determine the germination rate.

[3] = test system: Geobacillus stearothermophilus (NBRC 13737); test: as above; conditions: 300 ppm; for turbidity (630 nm): 37° C., 150 rpm
Method: as §1, §2, §3, §4, §5, §6, §7

[4] = 0 min after reaction initiation
[5] = 10 min after reaction initiation
[6] = 20 min after reaction initiation
[7] = 30 min after reaction initiation
[8] = 40 min after reaction initiation
[9] = 50 min after reaction initiation
[10] = 60 min after reaction initiation
[11] = 90 min after reaction initiation
[12] = 120 min after reaction initiation
[13] = 180 min after reaction initiation

## COc1cc(C(=O)O)ccc1O [Vanillic acid, vanillic acid]
[1]; vanillic acid 10 ppm, 0 min after reaction initiation
  turbidity (630 nm): 0.590
[1]; vanillic acid 10 ppm, 10 min after reaction initiation
  turbidity (630 nm): 0.558
[1]; vanillic acid 10 ppm, 20 min after reaction initiation
  turbidity (630 nm): 0.548
[1]; vanillic acid 10 ppm, 30 min after reaction initiation
  turbidity (630 nm): 0.539
[1]; vanillic acid 10 ppm, 40 min after reaction initiation
  turbidity (630 nm): 0.527
[1]; vanillic acid 10 ppm, 50 min after reaction initiation
  turbidity (630 nm): 0.514
[1]; vanillic acid 10 ppm, 60 min after reaction initiation
  turbidity (630 nm): 0.497
[1]; vanillic acid 10 ppm, 90 min after reaction initiation
  turbidity (630 nm): 0.472
[1]; vanillic acid 10 ppm, 120 min after reaction initiation
  turbidity (630 nm): 0.437
[1]; vanillic acid 10 ppm, 180 min after reaction initiation
  turbidity (630 nm): 0.338
[1]; vanillic acid 100 ppm, 0 min after reaction initiation
  turbidity (630 nm): 0.584
[1]; vanillic acid 100 ppm, 10 min after reaction initiation
  turbidity (630 nm): 0.557
[1]; vanillic acid 100 ppm, 20 min after reaction initiation
  turbidity (630 nm): 0.553
[1]; vanillic acid 100 ppm, 30 min after reaction initiation
  turbidity (630 nm): 0.537
[1]; vanillic acid 100 ppm, 40 min after reaction initiation
  turbidity (630 nm): 0.526
[1]; vanillic acid 100 ppm, 50 min after reaction initiation
  turbidity (630 nm): 0.501
[1]; vanillic acid 100 ppm, 60 min after reaction initiation
  turbidity (630 nm): 0.491
[1]; vanillic acid 100 ppm, 90 min after reaction initiation
  turbidity (630 nm): 0.470
[1]; vanillic acid 100 ppm, 120 min after reaction initiation
  turbidity (630 nm): 0.433
[1]; vanillic acid 100 ppm, 180 min after reaction initiation
  turbidity (630 nm): 0.315
[1]; vanillic acid 300 ppm, 0 min after reaction initiation
  turbidity (630 nm): 0.572
[1]; vanillic acid 300 ppm, 10 min after reaction initiation
  turbidity (630 nm): 0.555
[1]; vanillic acid 300 ppm, 20 min after reaction initiation
  turbidity (630 nm): 0.543
[1]; vanillic acid 300 ppm, 30 min after reaction initiation
  turbidity (630 nm): 0.538
[1]; vanillic acid 300 ppm, 40 min after reaction initiation
  turbidity (630 nm): 0.526
[1]; vanillic acid 300 ppm, 50 min after reaction initiation
  turbidity (630 nm): 0.507
[1]; vanillic acid 300 ppm, 60 min after reaction initiation
  turbidity (630 nm): 0.501
[1]; vanillic acid 300 ppm, 90 min after reaction initiation
  turbidity (630 nm): 0.452
[1]; vanillic acid 300 ppm, 120 min after reaction initiation
  turbidity (630 nm): 0.381
[1]; vanillic acid 300 ppm, 180 min after reaction initiation
  turbidity (630 nm): 0.235
[1]; vanillic acid 600 ppm, 0 min after reaction initiation
  turbidity (630 nm): 0.566
[1]; vanillic acid 600 ppm, 10 min after reaction initiation
  turbidity (630 nm): 0.568
[1]; vanillic acid 600 ppm, 20 min after reaction initiation
  turbidity (630 nm): 0.561
[1]; vanillic acid 600 ppm, 30 min after reaction initiation
  turbidity (630 nm): 0.540
[1]; vanillic acid 600 ppm, 40 min after reaction initiation
  turbidity (630 nm): 0.512
[1]; vanillic acid 600 ppm, 50 min after reaction initiation
  turbidity (630 nm): 0.499
[1]; vanillic acid 600 ppm, 60 min after reaction initiation
  turbidity (630 nm): 0.488
[1]; vanillic acid 600 ppm, 90 min after reaction initiation
  turbidity (630 nm): 0.447
[1]; vanillic acid 600 ppm, 120 min after reaction initiation
  turbidity (630 nm): 0.390
[1]; vanillic acid 600 ppm, 180 min after reaction initiation
  turbidity (630 nm): 0.262
[1]; vanillic acid 1200 ppm, 0 min after reaction initiation
  turbidity (630 nm): 0.567
[1]; vanillic acid 1200 ppm, 10 min after reaction initiation
  turbidity (630 nm): 0.559
[1]; vanillic acid 1200 ppm, 20 min after reaction initiation
  turbidity (630 nm): 0.551
[1]; vanillic acid 1200 ppm, 30 min after reaction initiation
  turbidity (630 nm): 0.548
[1]; vanillic acid 1200 ppm, 40 min after reaction initiation
  turbidity (630 nm): 0.520
[1]; vanillic acid 1200 ppm, 50 min after reaction initiation
  turbidity (630 nm): 0.509
[1]; vanillic acid 1200 ppm, 60 min after reaction initiation
  turbidity (630 nm): 0.496
[1]; vanillic acid 1200 ppm, 90 min after reaction initiation
  turbidity (630 nm): 0.474
[1]; vanillic acid 1200 ppm, 120 min after reaction initiation
  turbidity (630 nm): 0.456
[1]; vanillic acid 1200 ppm, 180 min after reaction initiation
  turbidity (630 nm): 0.419
[1]; vanillic acid 1800 ppm, 0 min after reaction initiation
  turbidity (630 nm): 0.579
[1]; vanillic acid 1800 ppm, 10 min after reaction initiation
  turbidity (630 nm): 0.562
[1]; vanillic acid 1800 ppm, 20 min after reaction initiation
  turbidity (630 nm): 0.549
[1]; vanillic acid 1800 ppm, 30 min after reaction initiation
  turbidity (630 nm): 0.538
[1]; vanillic acid 1800 ppm, 40 min after reaction initiation
  turbidity (630 nm): 0.519
[1]; vanillic acid 1800 ppm, 50 min after reaction initiation
  turbidity (630 nm): 0.510
[1]; vanillic acid 1800 ppm, 60 min after reaction initiation
  turbidity (630 nm): 0.498
[1]; vanillic acid 1800 ppm, 90 min after reaction initiation
  turbidity (630 nm): 0.472
[1]; vanillic acid 1800 ppm, 120 min after reaction initiation
  turbidity (630 nm): 0.453
[1]; vanillic acid 1800 ppm, 180 min after reaction initiation
  turbidity (630 nm): 0.420
[1]; vanillic acid of 10 to 1800 ppm
  germination induction versus concentration: germination was inducted at any concentration to the same extent
[2]; [4]
  turbidity (630 nm): 0.536
[2]; [5]
  turbidity (630 nm): 0.513
[2]; [6]
  turbidity (630 nm): 0.483
[2]; [7]
  turbidity (630 nm): 0.438
[2]; [8]
  turbidity (630 nm): 0.393
[2]; [9]
  turbidity (630 nm): 0.324
[2]; [10]
  turbidity (630 nm): 0.278
[2]; [11]
  turbidity (630 nm): 0.196
[2]; [12]
  turbidity (630 nm): 0.151
[2]; [13]
  turbidity (630 nm): 0.092
[2]; up to 180 min
  germination confirmed by turbidity decrease: the turbidity decreased
[3]; [4]
  turbidity (630 nm): 0.584
[3]; [5]
  turbidity (630 nm): 0.590
[3]; [6]
  turbidity (630 nm): 0.531
[3]; [7]
  turbidity (630 nm): 0.510
[3]; [8]
  turbidity (630 nm): 0.467
[3]; [9]
  turbidity (630 nm): 0.445
[3]; [10]
  turbidity (630 nm): 0.402
[3]; [11]
  turbidity (630 nm): 0.291
[3]; [12]
  turbidity (630 nm): 0.209
[3]; [13]
  turbidity (630 nm): 0.099
[3]; up to 180 min
  germination confirmed by turbidity decrease: the turbidity decreased

Reference: patent US20140308733A1, “METHOD FOR INDUCING GERMINATION OF SPORE FORMING BACTERIUM” (CALPIS CO., LTD., priority 2011, published 2014)
